Assay results reported in patent US20070275100A1, “Use of gaseous nitric oxide as an anti-cancer agent” (priority 1998, published 2007).
Values joined by “and” are separate entries in the source; they are usually repeats but may differ in a detail not shown here. Equal values may be shown once.

What was measured:
[1] = system: extra cellular M. tuberculosis; assay: Exposure of extracellular M. tuberculosis to NO; format: cell-based; conditions: exogenous NO
Excerpt: Further, it may be inferred that the large population of extracellular bacilli in patients with cavitary pulmonary tuberculosis are also vulnerable to exogenous (inhaled) NO.

[2] = system: normal human fibroblast cells (NHLF); assay: Viability under 25,000 ppm gNO (Example 5), NHLF; format: cell-based
Procedure: (§1) After 24 hours, the A549, NCI-H23, NCI-H460, HTB-58, H2170 and H441 cells were treated with 25,000 ppm gNO or air (control) for 1 minute, 3 minutes, 6 minutes, 9 minutes, 10 minutes, 20 minutes, and 30 minutes. Immediately following treatment, the viability of the cells was determined using a colorimetric MTS (3-(4,5-dimethylthiazol-2-yl)-5-(3-carboxymethoxyphenyl)-2-(4-sulfophenyl)-2H-tetrazolium, inner salt) cell proliferation assay (commercially available as the CellTiter 960 Aqueous One Solution Cell Proliferation Assay (MTS) from Promega, Madison, Wis., USA) according to the manufacturer's protocol. Briefly, 20 mL of MTS solution was added to each well and the cells were incubated for 2 hours at 37° C. Absorbance was measured at 490 nm for each well using a micro-plate reader (commercially available from Dynex Technologies, Chantilly, Va., USA). The relative percentage of cell survival (viability) was calculated by dividing the absorbance of treated cells by that of control cells for each experimental time point.
(§2) The purpose of this example is to illustrate the effects on normal human cell lines compared to the effects on cancerous cell lines of high-dosage gNO. The above study was repeated. […]

NCI-H460 = assay: MTS cell proliferation assay, 25,000 ppm gNO (Example 4), NCI-H460; format: cell-based, human
Excerpt: (§3) The purpose of this example is to illustrate the tumorcidal activity of high-dosage gNO. We examined the cellular sensitivity to 25,000 ppm of gNO on 5 non-small cell lung cancer (NSCLC) cells lines by an MTS cell proliferation assay.
(§4) Human lung cancer cell lines A549, NCI-H23, NCI-H460, HTB-58, H2170, and H441 (commercially available from American Type Culture Collection (“ATCC”), Manassas, Va.) were maintained in culture medium recommended by ATCC. All media were supplemented with 1% penicillin/streptomycin and 10% fetal bovine serum (commercially available from Invitrogen Gibco-BRL, Burlington, Ontario, Canada). […]
as §1, with “Briefly, 20 mL of MTS solution was added to each well and the cells were incubated for 2 hours at 37° C.” left out, “The relative percentage of cell survival (viability) was calculated by dividing the absorbance of treated cells by that of control cells for each experimental time point.” left out

[3] = system: squamous lung cancer cells (H2170); assay: Viability under 25,000 ppm gNO (Example 5), H2170; format: cell-based; conditions: Homo sapiens, NCI-H2170, 0.1 h, after 6 minutes, FIG. 8 D
Procedure: as §1, §2

NCI-H23 = assay: MTS cell proliferation assay, 25,000 ppm gNO (Example 4), NCI-H23; format: cell-based, human
Excerpt: as §3, §4
as §1, with “Briefly, 20 mL of MTS solution was added to each well and the cells were incubated for 2 hours at 37° C.” left out, “The relative percentage of cell survival (viability) was calculated by dividing the absorbance of treated cells by that of control cells for each experimental time point.” left out

[4] = system: H460-epithelial metastatic; large cell lung cancer cells; assay: MTS proliferation assay, H460 cells under continuous gNO exposure (Example 1); format: cell-based, human
Excerpt: (gNO) 200 ppm and 350 ppm compared to air (control) on the survival of a representative line of cancer cells. […] […] The plates then were removed and cell viability assessed by an MTS proliferation assay.
When exposed to 350 ppm of gNO, however, cancer cell survival rates decrease dramatically.

[5] = system: normal human endothelial lung vascular cells (NHVE); assay: Viability under 25,000 ppm gNO (Example 5), NHVE; format: cell-based
Procedure: as §1, §2

[6] = 350 ppm NO, 2 hours, RPMI medium
[7] = 350 ppm NO, 2 hours, RPMI medium, listed as NO

`[N]=O` [gNO, nitric oxide] was tested, and the mycobacteriocidal action [1] was “powerful dose-dependent and time-dependent mycobacteriocidal action”, the viability ([2]; after 6 minutes, FIG. 8 C) was “about 30%” and the “viability of normal lung fibroblasts” value ([2]; after 15 minutes of exposure) was 30%. For the same molecule, the “IC50 (exposure time)” value (NCI-H460) was “about 7 minutes”, the viability at 25000 ppm [3] was under 10% and the “IC50 (exposure time)” value (NCI-H23) was “about 6 minutes”. The viability at 25000 ppm (NCI-H23; Homo sapiens, NCI-H23, 0.15 h, at 9 minutes) was about 24%, the Average [4, 6] was 0.158 and the Survival [4, 6] was “about 0%”. For the same molecule, the “Corrected Average” value ([4]; 350 ppm NO, 2 hours, RPMI medium, blank subtracted) was 0.037, the “MTS assay reading, individual wells” value [4, 7] was 0.193 and 0.147 and 0.152 and 0.154 (2×) and 0.156 and 0.172 and 0.157 and 0.149 (2×) and 0.165 and 0.155 and 0.158 and 0.145 and 0.184 and 0.143 and the Survival [4, 7] was 2%. For the same molecule, the survivability ([4]; 350 ppm gNO, 24 hours continuous exposure, compared to air (control)) was 2%, the “killing of normal endothelial cells” value ([5]; 6 minutes) was “rapidly killed” and the viability ([5]; after 6 minutes, FIG. 8 B) was “less than 10%”.
